Read-outs that look alike come from different tables or passages of the source. Positions of bridges follow the written chain, without caps; N, C: chain ends. Non-standard residues stand in square brackets, D forms with d. Residues, ends and D or L forms follow the SMILES beside them. 1Nal = N[C@@H](Cc1cccc2ccccc12)C(=O)O; Lys(Me2) = CN(C)CCCC[C@H](N)C(=O)O; Phg = N[C@H](C(=O)O)c1ccccc1
Tests used:
Experiment in all cases: cell-based
[1] = target: hNav1.7 (Homo sapiens, UniProt Q15858); type: cell-based; details: IonWorks Quattro, read-out: IWQ Use Nav1.7
hNav1.7, sequence (Q15858 whole entry, looked up): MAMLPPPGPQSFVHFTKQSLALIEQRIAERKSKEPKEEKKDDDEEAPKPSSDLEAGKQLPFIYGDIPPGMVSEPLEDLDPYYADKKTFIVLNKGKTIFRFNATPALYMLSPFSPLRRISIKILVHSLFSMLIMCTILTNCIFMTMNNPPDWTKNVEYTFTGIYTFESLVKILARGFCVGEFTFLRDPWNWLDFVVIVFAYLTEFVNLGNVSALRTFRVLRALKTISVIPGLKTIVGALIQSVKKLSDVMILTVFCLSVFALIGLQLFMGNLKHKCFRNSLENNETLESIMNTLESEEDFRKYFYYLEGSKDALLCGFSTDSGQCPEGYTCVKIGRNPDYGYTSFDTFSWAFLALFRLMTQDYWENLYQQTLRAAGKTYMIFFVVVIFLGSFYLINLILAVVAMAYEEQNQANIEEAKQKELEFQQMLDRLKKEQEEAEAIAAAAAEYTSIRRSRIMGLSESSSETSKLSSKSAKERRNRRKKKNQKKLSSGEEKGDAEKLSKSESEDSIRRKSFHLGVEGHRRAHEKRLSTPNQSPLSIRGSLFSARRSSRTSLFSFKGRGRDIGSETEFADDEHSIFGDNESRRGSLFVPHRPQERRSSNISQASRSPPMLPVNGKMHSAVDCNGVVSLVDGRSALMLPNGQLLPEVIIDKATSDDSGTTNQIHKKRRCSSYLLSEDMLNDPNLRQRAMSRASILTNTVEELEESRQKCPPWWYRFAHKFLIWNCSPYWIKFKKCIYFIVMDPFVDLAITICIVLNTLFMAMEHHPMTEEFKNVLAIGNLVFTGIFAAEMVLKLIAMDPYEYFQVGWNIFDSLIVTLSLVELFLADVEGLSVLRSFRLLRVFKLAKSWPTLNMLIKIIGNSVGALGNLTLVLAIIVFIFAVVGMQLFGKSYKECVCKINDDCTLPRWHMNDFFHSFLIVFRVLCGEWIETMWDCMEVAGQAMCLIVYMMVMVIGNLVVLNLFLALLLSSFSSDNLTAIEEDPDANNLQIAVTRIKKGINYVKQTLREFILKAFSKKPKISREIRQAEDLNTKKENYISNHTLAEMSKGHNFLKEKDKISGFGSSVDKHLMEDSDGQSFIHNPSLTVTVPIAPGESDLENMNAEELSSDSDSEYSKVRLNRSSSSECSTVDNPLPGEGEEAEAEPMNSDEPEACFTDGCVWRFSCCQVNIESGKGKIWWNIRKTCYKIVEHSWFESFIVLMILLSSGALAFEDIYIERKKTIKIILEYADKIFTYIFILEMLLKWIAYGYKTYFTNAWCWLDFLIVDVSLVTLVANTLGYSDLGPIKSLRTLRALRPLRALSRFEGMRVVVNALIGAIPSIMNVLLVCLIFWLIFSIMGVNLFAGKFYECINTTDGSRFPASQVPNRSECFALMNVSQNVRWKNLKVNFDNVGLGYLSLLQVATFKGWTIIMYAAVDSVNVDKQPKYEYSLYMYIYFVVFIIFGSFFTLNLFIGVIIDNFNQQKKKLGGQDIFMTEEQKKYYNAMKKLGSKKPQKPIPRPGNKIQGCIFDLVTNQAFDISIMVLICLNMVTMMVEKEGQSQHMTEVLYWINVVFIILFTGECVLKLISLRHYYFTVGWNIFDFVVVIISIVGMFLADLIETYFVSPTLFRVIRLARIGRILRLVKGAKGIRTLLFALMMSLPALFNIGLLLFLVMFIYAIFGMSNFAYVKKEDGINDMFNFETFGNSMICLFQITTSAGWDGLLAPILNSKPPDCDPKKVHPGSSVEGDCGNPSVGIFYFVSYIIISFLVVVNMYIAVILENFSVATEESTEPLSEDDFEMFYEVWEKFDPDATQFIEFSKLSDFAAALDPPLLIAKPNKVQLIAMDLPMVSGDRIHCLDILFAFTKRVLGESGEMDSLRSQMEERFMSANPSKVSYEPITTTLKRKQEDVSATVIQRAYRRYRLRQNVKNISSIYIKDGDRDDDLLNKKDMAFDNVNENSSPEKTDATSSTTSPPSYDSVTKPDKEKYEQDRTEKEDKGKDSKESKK

[2] = target: hNav1.5 (Homo sapiens, UniProt Q14524); details: IonWorks Quattro, read-out: IWQ Use Nav1.5
[3] = target: hNav1.3 (Homo sapiens, UniProt Q9NY46); details: IonWorks Quattro, read-out: IWQ Use Nav1.3
hNav1.3, sequence (Q9NY46 whole entry, looked up): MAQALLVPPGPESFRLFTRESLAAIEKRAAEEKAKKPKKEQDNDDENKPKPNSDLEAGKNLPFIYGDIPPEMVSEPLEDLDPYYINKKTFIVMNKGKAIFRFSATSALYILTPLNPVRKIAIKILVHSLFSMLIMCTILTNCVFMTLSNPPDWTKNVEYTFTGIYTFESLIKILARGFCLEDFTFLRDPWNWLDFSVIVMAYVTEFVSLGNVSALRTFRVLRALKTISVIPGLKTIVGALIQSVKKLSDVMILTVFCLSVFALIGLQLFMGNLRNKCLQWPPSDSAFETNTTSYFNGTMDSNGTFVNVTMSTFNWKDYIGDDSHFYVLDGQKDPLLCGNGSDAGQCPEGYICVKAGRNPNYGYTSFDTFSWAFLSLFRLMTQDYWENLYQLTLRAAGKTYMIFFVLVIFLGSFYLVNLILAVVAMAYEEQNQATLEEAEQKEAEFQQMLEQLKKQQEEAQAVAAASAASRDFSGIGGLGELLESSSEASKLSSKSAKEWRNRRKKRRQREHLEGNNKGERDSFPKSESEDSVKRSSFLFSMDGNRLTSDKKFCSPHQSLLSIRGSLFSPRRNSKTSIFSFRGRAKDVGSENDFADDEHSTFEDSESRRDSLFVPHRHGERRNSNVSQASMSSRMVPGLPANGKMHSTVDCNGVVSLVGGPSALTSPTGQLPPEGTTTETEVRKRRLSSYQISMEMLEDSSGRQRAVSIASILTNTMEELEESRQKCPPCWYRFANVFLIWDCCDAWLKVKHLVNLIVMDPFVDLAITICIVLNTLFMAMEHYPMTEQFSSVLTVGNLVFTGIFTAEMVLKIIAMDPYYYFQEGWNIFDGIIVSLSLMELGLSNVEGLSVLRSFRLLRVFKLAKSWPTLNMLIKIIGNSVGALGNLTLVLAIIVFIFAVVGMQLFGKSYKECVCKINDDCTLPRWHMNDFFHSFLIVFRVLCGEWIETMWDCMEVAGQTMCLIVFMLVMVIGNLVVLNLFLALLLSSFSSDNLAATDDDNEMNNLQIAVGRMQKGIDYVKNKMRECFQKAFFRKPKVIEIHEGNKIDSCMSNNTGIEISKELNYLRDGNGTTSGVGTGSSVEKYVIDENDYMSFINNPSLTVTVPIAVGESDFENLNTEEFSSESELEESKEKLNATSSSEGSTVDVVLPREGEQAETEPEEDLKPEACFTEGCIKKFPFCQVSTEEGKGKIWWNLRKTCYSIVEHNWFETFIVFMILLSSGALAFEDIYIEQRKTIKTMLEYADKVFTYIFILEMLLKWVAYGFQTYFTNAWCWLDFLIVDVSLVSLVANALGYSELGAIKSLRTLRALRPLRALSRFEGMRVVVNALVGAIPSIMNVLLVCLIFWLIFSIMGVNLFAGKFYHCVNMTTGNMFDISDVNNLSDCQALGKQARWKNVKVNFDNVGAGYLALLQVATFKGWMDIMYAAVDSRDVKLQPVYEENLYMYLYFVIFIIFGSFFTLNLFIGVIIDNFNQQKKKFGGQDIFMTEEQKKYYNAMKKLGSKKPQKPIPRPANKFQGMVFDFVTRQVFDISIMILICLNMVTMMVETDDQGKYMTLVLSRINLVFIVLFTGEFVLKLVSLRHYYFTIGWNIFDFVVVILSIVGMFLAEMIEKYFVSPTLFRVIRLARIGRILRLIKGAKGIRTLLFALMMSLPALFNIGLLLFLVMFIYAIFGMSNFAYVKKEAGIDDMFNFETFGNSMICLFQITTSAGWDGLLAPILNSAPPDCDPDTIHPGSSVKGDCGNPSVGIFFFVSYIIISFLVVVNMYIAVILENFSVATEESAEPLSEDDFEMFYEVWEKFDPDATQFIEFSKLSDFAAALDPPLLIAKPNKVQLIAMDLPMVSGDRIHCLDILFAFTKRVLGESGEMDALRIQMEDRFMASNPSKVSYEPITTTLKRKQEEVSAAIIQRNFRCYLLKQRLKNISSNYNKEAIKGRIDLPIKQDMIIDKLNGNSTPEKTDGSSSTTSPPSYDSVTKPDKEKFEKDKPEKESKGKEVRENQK

CC[C@H](C)[C@@H]1NC(=O)[C@@H]2CSSC[C@@H]3NC(=O)[C@H](C(C)C)NC(=O)[C@H](CC(C)C)NC(=O)[C@H](CC(N)=O)NC(=O)[C@@H]4CCCN4C(=O)[C@H](CCCNC(=N)N)NC(=O)[C@H](CSSC[C@H](NC(=O)[C@@H](N)CC(=O)O)C(=O)N[C@@H](CC(C)C)C(=O)NCC(=O)N[C@@H](C)C(=O)N[C@@H](CC[S+](C)[O-])C(=O)N[C@@H](CCCNC(=N)N)C(=O)N[C@@H](CCCCN)C(=O)N2)NC(=O)[C@H](CSSC[C@@H](C(=O)N[C@@H](CCCCN)C(=O)N[C@@H](Cc2ccc(O)cc2)C(=O)N[C@H](C(=O)N[C@@H](Cc2ccccc2)C(N)=O)C(C)C)NC(=O)[C@H](Cc2c[nH]c4ccccc24)NC(=O)[C@H](CCCCN)NC(=O)[C@H](Cc2c[nH]cn2)NC(=O)[C@H]([C@@H](C)O)NC(=O)[C@H](CCCNC(=N)N)NC(=O)[C@H](CO)NC3=O)NC(=O)[C@H](CCCCN)NC(=O)[C@H](CC(=O)O)NC(=O)[C@H](CC(N)=O)NC(=O)[C@H](CC(=O)O)NC(=O)[C@@H]2CCCN2C1=O (single isomer, unassigned) [compound 791]
IC50 ([1]; use-dependent block, hNav1.7): > 5 µM | IC50 ([2]; use-dependent block, hNav1.5): 39.5 µM | IC50 ([3]; use-dependent block, hNav1.3): > 5 µM

CC[C@H](C)[C@@H]1NC(=O)[C@@H]2CSSC[C@@H]3NC(=O)[C@H](C(C)C)NC(=O)[C@H](CC(C)C)NC(=O)[C@H](CC(N)=O)NC(=O)[C@@H]4CCCN4C(=O)[C@H](CCCNC(=N)N)NC(=O)[C@H](CSSC[C@H](NC(=O)[C@@H](N)CC(=O)O)C(=O)N[C@@H](CC(C)C)C(=O)NCC(=O)N[C@@H](Cc4ccccc4)C(=O)N[C@@H](CCSC)C(=O)N[C@@H](CCCNC(=N)N)C(=O)N[C@@H](CCCCN)C(=O)N2)NC(=O)[C@H](CSSC[C@@H](C(=O)N[C@@H](CCCCN)C(=O)N[C@@H](Cc2ccc(O)cc2)C(=O)N[C@H](C(=O)N[C@@H](Cc2ccccc2)C(N)=O)C(C)C)NC(=O)[C@H](Cc2c[nH]c4ccccc24)NC(=O)[C@H](CCCCN)NC(=O)[C@H](Cc2c[nH]cn2)NC(=O)CNC(=O)[C@H](CCCNC(=N)N)NC(=O)[C@H](CO)NC3=O)NC(=O)[C@H](CCCCN)NC(=O)[C@H](CC(=O)O)NC(=O)[C@H](CC(N)=O)NC(=O)[C@H](CC(=O)O)NC(=O)[C@@H]2CCCN2C1=O [compound 343] (H-DCLGFMRKCIPDNDKCCRPNLVCSRGHKWCKYVF-NH2; disulfide 2-17, 9-23, 16-30)
IC50 ([1]; Table 22, use, […]): 0.1 µM | IC50 ([2]; Table 22, use, […]): 4.07 µM | IC50 ([3]; Table 22, use, […]): 0.09 µM

CC[C@H](C)[C@@H]1NC(=O)[C@@H]2CSSC[C@@H]3NC(=O)[C@H](C(C)C)NC(=O)[C@H](CC(C)C)NC(=O)[C@H](CC(N)=O)NC(=O)[C@@H]4CCCN4C(=O)[C@H](CCCNC(=N)N)NC(=O)[C@H](CSSC[C@H](NC(=O)[C@@H](N)CC(=O)O)C(=O)N[C@@H](CC(C)C)C(=O)NCC(=O)N[C@@H](Cc4ccccc4)C(=O)N[C@@H](CCSC)C(=O)N[C@@H](CCCNC(=N)N)C(=O)N[C@@H](CCCCN)C(=O)N2)NC(=O)[C@H](CSSC[C@@H](C(=O)N[C@@H](CCCCN)C(=O)N[C@@H](Cc2ccc(O)cc2)C(=O)N[C@H](C(=O)N[C@@H](Cc2ccccc2)C(N)=O)C(C)C)NC(=O)[C@H](c2ccccc2)NC(=O)[C@H](CCCCN)NC(=O)[C@H](Cc2c[nH]cn2)NC(=O)[C@H]([C@@H](C)O)NC(=O)[C@H](CCCNC(=N)N)NC(=O)[C@H](CO)NC3=O)NC(=O)[C@H](CCCCN)NC(=O)[C@H](CC(=O)O)NC(=O)[C@H](CC(N)=O)NC(=O)[C@H](CC(=O)O)NC(=O)[C@@H]2CCCN2C1=O [compound 362] (H-DCLGFMRKCIPDNDKCCRPNLVCSRTHK[Phg]CKYVF-NH2; disulfide 2-17, 9-23, 16-30)
IC50 ([1]; Table 24, use, […]): 5.52 µM | IC50 ([2]; Table 24, use, […]): 7.85 µM | IC50 ([3]; Table 24, use, […]): 3.18 µM

CC[C@H](C)[C@@H]1NC(=O)[C@@H]2CSSC[C@@H]3NC(=O)[C@H](C(C)C)NC(=O)[C@H](CC(C)C)NC(=O)[C@H](CC(N)=O)NC(=O)[C@@H]4CCCN4C(=O)[C@H](CCCNC(=N)N)NC(=O)[C@H](CSSC[C@H](NC(=O)[C@@H](N)CC(=O)O)C(=O)N[C@@H](CC(C)C)C(=O)NCC(=O)N[C@@H](Cc4ccccc4)C(=O)N[C@@H](Cc4c[nH]c5ccccc45)C(=O)N[C@@H](CCCNC(=N)N)C(=O)N[C@@H](CCCCN)C(=O)N2)NC(=O)[C@H](CSSC[C@@H](C(=O)N[C@@H](CCCCN)C(=O)N[C@@H](Cc2c[nH]c4ccccc24)C(=O)N[C@H](C(=O)N[C@@H](Cc2ccccc2)C(N)=O)C(C)C)NC(=O)[C@H](Cc2c[nH]c4ccccc24)NC(=O)[C@H](CCCCN)NC(=O)[C@H](Cc2c[nH]cn2)NC(=O)[C@H]([C@@H](C)O)NC(=O)[C@H](CCCNC(=N)N)NC(=O)[C@H](CO)NC3=O)NC(=O)[C@H](CCCCN)NC(=O)[C@H](CC(=O)O)NC(=O)[C@H](CC(N)=O)NC(=O)[C@H](CC(=O)O)NC(=O)[C@@H]2CCCN2C1=O [compound 449] (H-DCLGFWRKCIPDNDKCCRPNLVCSRTHKWCKWVF-NH2; disulfide 2-17, 9-23, 16-30)
IC50 ([1]; use-dependent block, hNav1.7): 0.03 µM | IC50 ([2]; use-dependent block, hNav1.5): 2.93 µM | IC50 ([3]; use-dependent block, hNav1.3): 0.01 µM

CC[C@H](C)[C@@H]1NC(=O)[C@@H]2CSSC[C@@H]3NC(=O)[C@H](C(C)C)NC(=O)[C@H](CC(C)C)NC(=O)[C@H](CC(N)=O)NC(=O)[C@@H]4CCCN4C(=O)[C@H](CCCNC(=N)N)NC(=O)[C@H](CSSC[C@H](NC(=O)[C@@H](N)CC(=O)O)C(=O)N[C@@H](CC(C)C)C(=O)NCC(=O)N[C@@H](Cc4ccccc4)C(=O)N[C@@H](CCSC)C(=O)N[C@@H](CCCNC(=N)N)C(=O)N[C@@H](CCCCN)C(=O)N2)NC(=O)[C@H](CSSC[C@@H](C(=O)N[C@@H](CCCCN)C(=O)N[C@@H](Cc2ccc(O)cc2)C(=O)N[C@@H](CCCCN)C(=O)N[C@@H](Cc2ccccc2)C(N)=O)NC(=O)[C@H](Cc2c[nH]c4ccccc24)NC(=O)[C@H](CCCCN)NC(=O)[C@H](Cc2cnc[nH]2)NC(=O)[C@H]([C@@H](C)O)NC(=O)[C@H](CCCNC(=N)N)NC(=O)[C@H](CO)NC3=O)NC(=O)[C@H](CCCCN)NC(=O)[C@H](CC(=O)O)NC(=O)[C@H](CC(N)=O)NC(=O)[C@H](CC(=O)O)NC(=O)[C@@H]2CCCN2C1=O [compound 58] (H-DCLGFMRKCIPDNDKCCRPNLVCSRTHKWCKYKF-NH2; disulfide 2-17, 9-23, 16-30)
IC50 ([1]; Table 26, use, […]): 0.07 µM | IC50 ([2]; Table 26, use, […]): 9.56 µM | IC50 ([3]; Table 26, use, […]): 0.07 µM

CC[C@H](C)[C@@H]1NC(=O)[C@@H]2CSSC[C@@H]3NC(=O)[C@H](C(C)C)NC(=O)[C@H](CC(C)C)NC(=O)[C@H](CC(N)=O)NC(=O)[C@@H]4CCCN4C(=O)[C@H](CCCNC(=N)N)NC(=O)[C@H](CSSC[C@H](NC(=O)[C@@H](N)CC(=O)O)C(=O)N[C@@H](CC(C)C)C(=O)NCC(=O)N[C@@H](Cc4ccccc4)C(=O)N[C@@H](CCSC)C(=O)N[C@@H](CCCNC(=N)N)C(=O)N[C@@H](CCCCN)C(=O)N2)NC(=O)[C@H](CSSC[C@@H](C(=O)N[C@@H](CCCCN)C(=O)N[C@@H](Cc2ccc(O)cc2)C(=O)N[C@@H](Cc2cccc4ccccc24)C(=O)N[C@@H](Cc2ccccc2)C(N)=O)NC(=O)[C@H](Cc2c[nH]c4ccccc24)NC(=O)[C@H](CCCNC(=N)N)NC(=O)[C@H](Cc2c[nH]cn2)NC(=O)[C@H]([C@@H](C)O)NC(=O)[C@H](CCCNC(=N)N)NC(=O)[C@H](CO)NC3=O)NC(=O)[C@H](CCCCN)NC(=O)[C@H](CC(=O)O)NC(=O)[C@H](CC(N)=O)NC(=O)[C@H](CC(=O)O)NC(=O)[C@@H]2CCCN2C1=O [compound 442] (H-DCLGFMRKCIPDNDKCCRPNLVCSRTHRWCKY[1Nal]F-NH2; disulfide 2-17, 9-23, 16-30)
IC50 ([1]; use-dependent block, hNav1.7): 0.03 µM | IC50 ([2]; use-dependent block, hNav1.5): > 5 µM | IC50 ([3]; use-dependent block, hNav1.3): 0.04 µM

CC[C@H](C)[C@@H]1NC(=O)[C@@H]2CSSC[C@@H]3NC(=O)[C@H](C(C)C)NC(=O)[C@H](CC(C)C)NC(=O)[C@H](CC(N)=O)NC(=O)[C@@H]4CCCN4C(=O)[C@H](CCCNC(=N)N)NC(=O)[C@H](CSSC[C@H](NC(=O)[C@@H](N)CC(=O)O)C(=O)N[C@@H](CC(C)C)C(=O)NCC(=O)N[C@@H](Cc4ccccc4)C(=O)N[C@@H](CCSC)C(=O)N[C@@H](CCCNC(=N)N)C(=O)N[C@@H](CCCCN)C(=O)N2)NC(=O)[C@H](CSSC[C@@H](C(=O)N[C@@H](CCCCN)C(=O)N[C@@H](Cc2ccc(O)cc2)C(=O)N[C@H](C(=O)N[C@@H](Cc2ccccc2)C(N)=O)C(C)C)NC(=O)[C@H](Cc2c[nH]c4ccccc24)NC(=O)[C@H](CCCCN)NC(=O)[C@H](CCCCN(C)C)NC(=O)[C@H]([C@@H](C)O)NC(=O)[C@H](CCCNC(=N)N)NC(=O)[C@H](CO)NC3=O)NC(=O)[C@H](CCCCN)NC(=O)[C@H](CC(=O)O)NC(=O)[C@H](CC(N)=O)NC(=O)[C@H](CC(=O)O)NC(=O)[C@@H]2CCCN2C1=O [compound 354] (H-DCLGFMRKCIPDNDKCCRPNLVCSRT[Lys(Me2)]KWCKYVF-NH2; disulfide 2-17, 9-23, 16-30)
IC50 ([1]; Table 23, use, […]): 7 µM | IC50 ([2]; Table 23, use, […]): 12.4 µM | IC50 ([3]; Table 23, use, […]): 3.82 µM

From patent US9340590B2 (priority 2011, dated 2016)
